Assay results taken from patent EP4653435A1, “PRMT5-MTA INHIBITOR” (Suzhou Puhe Biopharma Co., Ltd., priority 2023, dated 2024).

Experiments:
[1] = Liver microsomal stability assay, mouse; assay type: in vitro ADME; settings: mouse liver microsomes 0.5 mg/mL, compound 1 µM, NADPH 1 mM, 60 minute
Description: (§7) The compounds to be tested were co-incubated with liver microsomes of different species with or without the addition of NADPH. The final concentration of the test compounds in the test system was 1 µM, the final concentration of NADPH was 1 mM, and the final concentration of liver microsomes was 0.5 mg/mL.

SDMA/HCT116-MTAPwt = test: In-cell arginine symmetric dimethylation inhibition (In-cell western, ICW), wild-type cells; assay type: cell-based; settings: Homo sapiens, HCT-116, 96 hours
Description: (§1) 60 nL of different concentrations of compounds were added to each well using an Echo, and incubated at 37°C, 5% CO2 for 96 hours.
(§2) Next, 50 µL of 4% paraformaldehyde solution was added to each well and incubated at room temperature for 20 minutes to fix the cells. The solution in the wells was removed, and each well was rinsed four times with PBS solution containing 0.1% Tween 20 (PBST). To each well was then added 30 µL of ice-cold methanol. After standing at -20°C for 10 minutes, the methanol was removed and the wells washed four times with PBST. 30 µL of Odyssey blocking solution containing 0.5% Tween 20 was added to each well and shaken for 2 hours at room temperature. The blocking solution was removed and 30 µL of primary antibody (Symmetric Di-Methyl Arginine Motif [sdma-RG] MultiMab™ Rabbit mAb mix) diluted at 1:500 in Odyssey blocking solution containing 0.5% Tween 20 was added to each well. The plates were incubated overnight at 4°C, before removing the primary antibody and rinsing each well four times with PBST, 5 minutes per rinse. Secondary antibody (goat anti-rabbit IRDye 800CW, 1:800) and nuclear stain (DRAQ5, 1:10000) diluted in Odyssey blocking solution containing 0.5% Tween 20 were then added to each well before incubating at room temperature for 2 hours in the dark. The secondary antibody was removed, and the wells rinsed four times with PBST.
(§3) The sdme-RG and DRAQ5 signals were scanned at 800 nm and 700 nm respectively on a Li-Cor Odyssey instrument and the signal values recorded. The sdme-RG/DRAQ5 ratio was used to calculate the percentage inhibition of arginine symmetric dimethylation (SDMA), and the IC50 value calculated using GraphPad Prism software.

SDMA/HCT116-MTAPdel = test: In-cell arginine symmetric dimethylation inhibition (In-cell western, ICW), MTAP-deficient cells; assay type: cell-based; settings: for IC50: Homo sapiens, HCT-116, HCT116 MTAP-deficient cells, 96 hours; for Selectivity wt/MTAPdel: ratio SDMA IC50 wt / MTAPdel
Description: as §1, §2, §3

HCT116-MTAPwt = test: 2D antiproliferative assay (CTG cell viability), wild-type cells; assay type: cell-based; settings: Homo sapiens, HCT-116, 7-10 days
Description: (§4) HCT116 wild-type and MTAP-deficient cells were cultured in McCoy's 5A medium containing 10% FBS and 1% penicillin-streptomycin, and cultured in a 37°C, 5% CO2 constant temperature incubator. 40 µL of cell suspension was introduced into each well of a 384-well microplate. 40 nL of different concentrations of test compounds were added to each well using an Echo, before culturing in a 37°C, 5% CO2 constant temperature incubator for 7-10 days. 40 µL of CTG solution (Promega, Cat No. G7573) was added to each well and incubated in a 37°C, 5% CO2 constant temperature incubator for 30 minutes in the dark.

HCT116-MTAPdel = test: 2D antiproliferative assay (CTG cell viability), MTAP-deficient cells; assay type: cell-based; settings: for IC50: Homo sapiens, HCT-116, HCT116 MTAP-deficient cells, 7-10 days, CTG, read-out: HCT116-MTAPdel/IC50/nM; for HCT116WT IMTAPdel selectivity: ratio IC50 wild type / MTAPdel, antiproliferation
Description: as §4

[2] = Liver microsomal stability assay, human; settings: for CLint scaled at 1 µM: liver microsomes
Description: as §7

[3] = Mouse pharmacokinetics testing; assay type: in vivo, CD1 female mice; settings: in vivo
Description: CD1 female mice were used as test animals and administered the compounds orally/intravenously (oral dosage was 10 mg/kg and intravenous dosage was 2 mg/kg). Test protocol: Each oral and intravenous group consisted of three mice. […] Plasma drug concentrations after oral and intravenous administration were determined by LC/MS/MS, and the collected data analyzed using AB Sciex QTRAP 6500 software.

[4] = Membrane permeability: Caco-2 assay; assay type: in vitro ADME; settings: human
Description: The membrane permeability of the molecules of the invention was evaluated. […] Efflux Ratio = Papp(B−A) /Papp(A−B) [formula]

MDR1 (P-gp) = test: in vitro; settings: dog, MDCK-MDR1, pH 7.4
Description: (§5) The membrane permeability of the molecules of the present invention was evaluated to predict their permeability to the brain.
(§6) The specific procedure was: 1. MDCK-MDR1 cells were pre-cultured at a density of 1.56*10^6 cells/mL in a 96-well plate at 37°C for 7 days. 2. The MDCKII-MDR1 plate was taken out of the incubator, rinsed twice with pre-warmed HBSS (10 mM HEPES, pH 7.4), and then incubated at 37°C for 30 minutes. 3. The stock solution of the compound to be tested was diluted with DMSO to obtain a 0.2 mM solution, and then diluted with HBSS (10 mM HEPES, pH 7.4) to obtain a 1 µM working solution. A blank control group was also diluted with DMSO to obtain a 0.2 mM solution, and then diluted with HBSS (10 mM HEPES, pH 7.4) to obtain a 1 µM working solution. The final concentration of DMSO in the culture system was 0.5%. 4. The transport rate of the drug in the apical to basolateral direction was determined: 125 µL of the 1 µM test compound solution was added to a Transwell insert (top compartment), before immediately transferring a 50 µL sample (D0 sample) from the top comparment to a new 96-well plate. The receiving plate wells (basolateral compartment) were filled with 235 µL HBSS (10 mM HEPES, pH 7.4) and incubated at 37°C for 2 hours. 5. Upon completion of the incubation, 50 µL samples were transferred from the donor and acceptor sides to the wells of a new 96-well plate, before adding 4 volumes of cold acetonitrile containing an appropriate internal standard (IS). Prior to LC-MS/MS analysis, 100 µL of the supernatant was taken and mixed with an appropriate volume of ultrapure water. Papp = (VA×[drug]acceptor)/(Area×Time×[drug]initial,donor) [formula] where VA is the volume of the receptor pores (unit:mL), Area is the surface area of the membrane (0.143 cm^2 for a Transwell-96 well permeable support), and time is the total transport time in seconds. Efflux Ratio = Papp(B−A) /Papp(A−B) [formula]

in vitro = settings: dog, MDCK-MDR1, pH 7.4
Description: as §5, §6

[5] = female, CD1, mouse, iv, 2 mg/kg
[6] = female, CD1, mouse, po, 10 mg/kg
[7] = Caco-2, apical pH 6.5, basolateral pH 7.4

Row | SMILES | IC50 (SDMA/HCT116-MTAPwt) | IC50 (SDMA/HCT116-MTAPdel) | Selectivity wt/MTAPdel (SDMA/HCT116-MTAPdel) | IC50 (HCT116-MTAPwt) | IC50 (HCT116-MTAPdel) | HCT116WT IMTAPdel selectivity (HCT116-MTAPdel) | CLint scaled at 1 µM [2] | F ([3]; female, CD1, mouse) | AUC(0-t) [3, 5] | C0 [3, 5] | clearance [3, 5] | half-life [3, 5] | AUC(0-t) [3, 6] | Cmax [3, 6] | Tmax [3, 6] | half-life [3, 6] | efflux ratio (MDR1 (P-gp)) | Papp A→B (in vitro) | Papp B→A (in vitro) | further results
1 | CN(C(=O)C(=O)Nc1cnc(N)c2c1cnn2C)[C@@H]1COCc2nc(C(F)(F)F)ccc21 [Compound P9a] | 2450 nM | 0.9 nM | 2722 | 4000 nM | 12 nM | 333 | 0.126 L/h/kg | 77% | 3.99 µg·h/mL | 5.65 µg/mL | 0.498 L/h/kg | 1.2 h | 15.4 µg·h/mL | 10.8 µg/mL | 0.25 h | 1.1 h |  |  |  | CLint scaled at 1 µM [1]: 0.6 L/h/kg; efflux ratio ([4]; Caco-2, Efflux Ratio = Papp(B-A)/Papp(A-B)): 2.9; Papp A→B [4, 7]: 86.5 nm/s; Papp B→A [4, 7]: 251 nm/s
2 | CCN(C(=O)C(=O)Nc1cnc(N)c2c1cnn2C)[C@@H]1COc2cc(C(F)(F)F)ccc21 [Compound P19a] |  |  |  | 1080 nM | 6 nM | 181 |  |  |  |  |  |  |  |  |  |  |  |  |  | CLint scaled at 1 h, 1 µM [1]: 6.6 L/h/kg; CLint scaled at 1 h, 1 µM ([2]; microsomes): 1.2 L/h/kg; F ([3]; mouse): 59%; AUC(0-t) at 24 h ([3]; mouse, iv, 2 mg/kg): 1.48 µg·h/mL; C0 ([3]; mouse, iv, 2 mg/kg): 1.21 µg/mL; clearance ([3]; mouse, iv, 2 mg/kg): 1.29 L/h/kg; half-life ([3]; mouse, iv, 2 mg/kg): 2.1 h; AUC(0-t) at 24 h ([3]; mouse, po, 10 mg/kg): 4.39 µg·h/mL; Cmax ([3]; mouse, po, 10 mg/kg): 1.1 µg/mL; Tmax ([3]; mouse, po, 10 mg/kg): 0.5 h; half-life ([3]; mouse, po, 10 mg/kg): 6.8 h
3 | CCN(C(=O)C(=O)Nc1cnc(N)c2c1cnn2C)[C@@H]1COCc2nc(C(F)(F)F)ccc21 [Compound P28] |  |  |  | 1190 nM | 10 nM | 119 | 0.288 L/h/kg |  |  |  |  |  |  |  |  |  | 3.2 | 107 nm/s | 340 nm/s | 
4 | CN(C(=O)C(=O)Nc1cnc(N)c2c1cnn2C)C1COc2cc(OC(F)(F)F)ccc21 (stereo not drawn) [Compound P30] |  |  |  | 3140 nM | 13 nM | 241 | 0.564 L/h/kg | 74% | 1.41 µg·h/mL | 1.07 µg/mL | 1.38 L/h/kg | 2 h | 5.15 µg·h/mL | 1.85 µg/mL | 0.25 h | 1.5 h |  |  |  | 
5 | CN(C(=O)C(=O)Nc1cnc(N)c2c1cnn2C)C1COc2cc(S(=O)(=O)C(F)(F)F)ccc21 (stereo not drawn) [Compound P33] |  |  |  | 1460 nM | 9 nM | 162 |  |  |  |  |  |  |  |  |  |  | 4.2 | 68.6 nm/s | 288 nm/s | 
6 | Cc1cc(NC(=O)C(=O)N2C[C@@H](C)CC[C@@H]2c2ccc3scnc3c2)cnc1N [TNG908, reference compound] | 2210 nM | 2.6 nM | 850 | 1190 nM | 43 nM | 27 |  |  |  |  |  |  |  |  |  |  |  |  |  | 
